This is an account of results in patent US20230041621A1, “SSTR5 ANTAGONISTS” (Kallyope, Inc., priority 2019, published 2023).

The data set in a line: Oral bioavailability after oral dosing in rat. The following applies: in vivo, Sprague Dawley rats, IV 1 mg/kg, PO 5 mg/kg, IV vehicle 5% DMSO + 30% PEG400 + 65% water, PO vehicle 0.5% methyl cellulose in water. Here is the method:
Oral bioavailability of the compounds was determined in Sprague Dawley rats. The table below summarizes the results. Each compound was dosed intravenously (IV) at 1 mg/kg and orally (PO) 5 mg/kg using the respective vehicles listed below. The compounds display low (<10%) oral bioavailability (F %).
As to `CCOc1cc(-c2ccc(F)cc2)c(C2CC2)cc1CN1CCC2(CC1)CN(c1ccc(S(=O)(=O)O)cc1)C(=O)O2` [Compound 1, 4-(8-((2-cyclopropyl-5-ethoxy-4′-fluoro-[1,1′-biphenyl]-4-yl)methyl)-2-oxo-1-oxa-3,8-diazaspiro[4.5]decan-3-yl)benzenesulfonic acid], the bioavailability was 4.6%.

As for `CCOc1cc(-c2ccc(F)cn2)c(C2CC2)cc1CN1CCC2(CC1)CN(c1ccc(S(=O)(=O)O)cc1)C(=O)O2` [Compound 3, 4-(8-(5-cyclopropyl-2-ethoxy-4-(5-fluoropyridin-2-yl)benzyl)-2-oxo-1-oxa-3,8-diazaspiro[4.5]decan-3-yl)benzenesulfonic acid], the bioavailability is 1.2%.

Turning to `CCOc1cc(-c2ccc(F)cc2)c(C2CC2)cc1CN1CCC2(CC1)CC(=O)N(c1ccc(S(=O)(=O)O)cc1)C2` [Compound 2, 4-(8-((2-cyclopropyl-5-ethoxy-4′-fluoro-[1,1′-biphenyl]-4-yl)methyl)-3-oxo-2,8-diazaspiro[4.5]decan-2-yl)benzenesulfonic acid], the bioavailability was determined as 2.1%.
